Reference: PubChem BioAssay (NCI)
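Briefly, cells in 96-well plates were exposed to five compound concentrations for 48 h, and endpoints were estimated by linear interpolation. At the GI50, growth is halved. TGI denotes the concentration required for complete inhibition of growth.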

Key:
Assay in all cases: NCI tumour cell line growth inhibition, 48 h
UO-31 renal = tested on: UO-31 renal
RPMI-8226 leukemia = tested on: RPMI-8226 leukemia
SW-620 colon = tested on: SW-620 colon
SF-539 CNS = tested on: SF-539 CNS
UACC-257 melanoma = tested on: UACC-257 melanoma
SR leukemia = tested on: SR leukemia
CCRF-CEM leukemia = tested on: CCRF-CEM leukemia
HS 578T breast = tested on: HS 578T breast
MDA-MB-435 = tested on: MDA-MB-435
MCF7 breast = tested on: MCF7 breast

## Cn1c(N)nc(=O)c2c1N(C1OC(CO)C(O)C1O)CN2Cc1ccccc1 (centres undefined)
UO-31 renal
  TGI: > 100 µM
RPMI-8226 leukemia
  TGI: > 100 µM
SW-620 colon
  TGI: > 100 µM
SF-539 CNS
  TGI: > 100 µM
UACC-257 melanoma
  TGI: > 100 µM
SR leukemia
  TGI: > 100 µM

## Cc1[nH]c(=O)[nH]c1C(=O)c1ccc(-n2ccnc2)cc1
UO-31 renal
  TGI: > 100 µM
RPMI-8226 leukemia
  TGI: > 100 µM
SW-620 colon
  TGI: > 100 µM
SF-539 CNS
  TGI: > 100 µM
UACC-257 melanoma
  TGI: > 100 µM
SR leukemia
  TGI: > 100 µM

## CCc1cc(CCC(=O)Nc2ccccc2[N+](=O)[O-])[nH]c(=S)n1
CCRF-CEM leukemia
  TGI: > 100 µM
UO-31 renal
  TGI: > 100 µM
SW-620 colon
  TGI: > 100 µM
SF-539 CNS
  TGI: > 100 µM
UACC-257 melanoma
  TGI: > 100 µM
SR leukemia
  TGI: > 100 µM

## N#CC1(C#N)C2C=CC(c3coc4cccc2c34)C1(C#N)C#N (centres undefined)
CCRF-CEM leukemia
  TGI: 6.71 µM
UO-31 renal
  TGI: 25.6 µM
RPMI-8226 leukemia
  TGI: 19.9 µM
SW-620 colon
  TGI: 3.32 µM
SF-539 CNS
  TGI: 35.2 µM
UACC-257 melanoma
  TGI: 23.1 µM
SR leukemia
  TGI: 7.83 µM

## Nc1ccc(-c2cccs2)cc1NC(=O)c1ccc(CCCC(=O)Nc2ccc(C3CC3N)cc2)cc1 (centres undefined)
UO-31 renal
  GI50: 23.3 µM
  TGI: > 100 µM
HS 578T breast
  GI50: 7.93 µM
  TGI: > 100 µM
MDA-MB-435
  GI50: 1.74 µM
  TGI: 4 µM
SF-539 CNS
  GI50: 2.42 µM
  TGI: 7.94 µM

## CN(C)CCNc1c2ccccc2nc2oc3ccccc3c12
CCRF-CEM leukemia
  TGI: 0.0412 µM
UO-31 renal
  GI50: 4.91 µM
  TGI: 46.9 µM
HS 578T breast
  GI50: 4.6 µM
  TGI: 20.1 µM
SW-620 colon
  GI50: 3.61 µM
  TGI: 15.1 µM
MCF7 breast
  GI50: 4.07 µM
  TGI: 16.1 µM
MDA-MB-435
  GI50: 6.9 µM
  TGI: 23 µM
SF-539 CNS
  GI50: 4.03 µM
  TGI: 15.3 µM
UACC-257 melanoma
  GI50: 7.88 µM
  TGI: 27 µM

## C=C(C(=C)N1N=NC2C3CCC(C3)C21)N1N=NC2C3CCC(C3)C21 (centres undefined)
CCRF-CEM leukemia
  TGI: > 100 µM
UO-31 renal
  TGI: > 100 µM
SW-620 colon
  TGI: > 100 µM
SF-539 CNS
  TGI: > 100 µM
UACC-257 melanoma
  TGI: > 100 µM
SR leukemia
  TGI: > 100 µM

## CCOC(=O)c1cnc2c(ccc3ncccc32)c1NCCCN(CC)CC
CCRF-CEM leukemia
  TGI: > 100 µM
UO-31 renal
  TGI: > 100 µM
RPMI-8226 leukemia
  TGI: > 100 µM
SW-620 colon
  TGI: > 100 µM
UACC-257 melanoma
  TGI: > 100 µM

## CCCCCCCCCC(=O)OCC1OC(n2cc(F)c(=O)[nH]c2=O)C(NC(=O)OCc2ccccc2)C(OC(=O)CCCCCCCCC)C1O (centres undefined)
CCRF-CEM leukemia
  TGI: > 100 µM
UO-31 renal
  TGI: > 100 µM
RPMI-8226 leukemia
  TGI: 65.2 µM
SW-620 colon
  TGI: > 100 µM
SF-539 CNS
  TGI: > 100 µM
UACC-257 melanoma
  TGI: > 100 µM
SR leukemia
  TGI: 81.2 µM

## O=C(/C=C/C12c3ccccc3C(c3ccccc31)C1C(=O)NC(=O)C12)c1ccc(F)cc1 (centres undefined)
CCRF-CEM leukemia
  GI50: 2.45 µM
  TGI: 8.42 µM
UO-31 renal
  GI50: 1.42 µM
  TGI: 2.85 µM
RPMI-8226 leukemia
  GI50: 1.62 µM
  TGI: 4.39 µM
HS 578T breast
  GI50: 2.28 µM
  TGI: 7.84 µM
SW-620 colon
  GI50: 2.12 µM
  TGI: 4.59 µM
MCF7 breast
  GI50: 1.66 µM
  TGI: 4.48 µM
MDA-MB-435
  GI50: 2.44 µM
  TGI: 6.41 µM
SF-539 CNS
  GI50: 1.7 µM
  TGI: 3.11 µM
UACC-257 melanoma
  GI50: 1.79 µM
  TGI: 3.37 µM

## CCOC(=O)c1cc(-c2ccccc2)[nH]c1N/N=C/c1ccc(Cl)cc1
CCRF-CEM leukemia
  GI50: 5.86 µM
  TGI: > 100 µM
UO-31 renal
  GI50: 73.6 µM
  TGI: > 100 µM
RPMI-8226 leukemia
  GI50: 29.8 µM
  TGI: > 100 µM
HS 578T breast
  GI50: 77.7 µM
  TGI: > 100 µM
SW-620 colon
  GI50: > 100 µM
  TGI: > 100 µM
MCF7 breast
  GI50: 19.5 µM
  TGI: > 100 µM
MDA-MB-435
  GI50: > 100 µM
  TGI: > 100 µM
SF-539 CNS
  GI50: > 100 µM
  TGI: > 100 µM
UACC-257 melanoma
  GI50: > 100 µM
  TGI: > 100 µM

## O=C(NO)[C@@H](Cc1ccccc1)NS(=O)(=O)c1ccc(-c2ccccc2)cc1
CCRF-CEM leukemia
  GI50: > 25 µM
  TGI: > 25 µM
UO-31 renal
  GI50: 13.2 µM
  TGI: > 25 µM
HS 578T breast
  GI50: > 25 µM
  TGI: > 25 µM
SW-620 colon
  GI50: 21.2 µM
  TGI: > 25 µM
MCF7 breast
  GI50: > 25 µM
  TGI: > 25 µM
MDA-MB-435
  GI50: 13.4 µM
  TGI: > 25 µM
SF-539 CNS
  GI50: 9.56 µM
  TGI: > 25 µM
UACC-257 melanoma
  GI50: > 25 µM
  TGI: > 25 µM

## CC(C)(C)c1ccc(OCCOCCOc2ccc(C(C)(C)C)cc2S(=O)(=O)Nc2ccc([N+](=O)[O-])cc2)c(S(=O)(=O)Nc2ccc([N+](=O)[O-])cc2)c1
CCRF-CEM leukemia
  TGI: > 100 µM
UO-31 renal
  TGI: > 100 µM
SW-620 colon
  TGI: > 100 µM
SF-539 CNS
  TGI: > 100 µM
UACC-257 melanoma
  TGI: > 100 µM

## NS(=O)(=O)CC1CC[CH-]CC1.[Cl-].[Cl-].[Cl-].[Cl-].[Cl-].[Sb+5].c1ccncc1
UO-31 renal
  GI50: > 100 µM
  TGI: > 100 µM
RPMI-8226 leukemia
  GI50: > 100 µM
  TGI: > 100 µM
HS 578T breast
  GI50: > 100 µM
  TGI: > 100 µM
SW-620 colon
  GI50: > 100 µM
  TGI: > 100 µM
MCF7 breast
  GI50: > 100 µM
  TGI: > 100 µM
MDA-MB-435
  GI50: > 100 µM
  TGI: > 100 µM
SF-539 CNS
  GI50: > 100 µM
  TGI: > 100 µM
UACC-257 melanoma
  GI50: > 100 µM
  TGI: > 100 µM
SR leukemia
  GI50: > 100 µM
  TGI: > 100 µM

## CC1=C(O)/C(=C/C(C)CCC/C(C)=C/C=C/C(C)CCCc2ccoc2)OC1=O (centres undefined)
UO-31 renal
  TGI: > 100 µM
SW-620 colon
  TGI: > 100 µM
SF-539 CNS
  TGI: > 100 µM
UACC-257 melanoma
  TGI: 66.3 µM

## C=C1CC2CC(O)CC(C1)C2 (centres undefined)
UO-31 renal
  TGI: > 100 µM
RPMI-8226 leukemia
  TGI: > 100 µM
SW-620 colon
  TGI: > 100 µM
SF-539 CNS
  TGI: > 100 µM
UACC-257 melanoma
  TGI: > 100 µM
SR leukemia
  TGI: > 100 µM

## COc1ccc(/C=C2\CCC(CCN(C)C)(C3=CCCC3)C2=O)cc1Br (centres undefined)
CCRF-CEM leukemia
  TGI: 5.74 µM
UO-31 renal
  TGI: 17.6 µM
RPMI-8226 leukemia
  TGI: 5.5 µM
SW-620 colon
  TGI: 20.3 µM
SF-539 CNS
  TGI: 25.7 µM
UACC-257 melanoma
  TGI: 5.5 µM
SR leukemia
  TGI: 5.06 µM

## CSc1snc2sc3c(Cl)nnnc3c12
CCRF-CEM leukemia
  TGI: 11 µM
UO-31 renal
  TGI: 25.6 µM
RPMI-8226 leukemia
  TGI: 56.2 µM
SW-620 colon
  TGI: 16.1 µM
SF-539 CNS
  TGI: 32.1 µM
UACC-257 melanoma
  TGI: 26.8 µM

## O=C(N/N=C1\C(=O)N(c2nccs2)C(=O)C(=O)C1c1nc2ccccc2s1)c1ccccc1O (centres undefined)
CCRF-CEM leukemia
  TGI: > 100 µM
UO-31 renal
  TGI: 35.4 µM
RPMI-8226 leukemia
  TGI: > 100 µM
SW-620 colon
  TGI: > 100 µM
SF-539 CNS
  TGI: > 100 µM
UACC-257 melanoma
  TGI: > 100 µM

## N#Cc1c(N)nc(N2CCOCC2)c(C#N)c1-c1ccccn1
CCRF-CEM leukemia
  GI50: > 100 µM
  TGI: > 100 µM
UO-31 renal
  GI50: > 100 µM
  TGI: > 100 µM
RPMI-8226 leukemia
  GI50: > 50.3 µM
  TGI: > 100 µM
HS 578T breast
  GI50: > 100 µM
  TGI: > 100 µM
SW-620 colon
  GI50: > 100 µM
  TGI: > 100 µM
MCF7 breast
  GI50: > 100 µM
  TGI: > 100 µM
MDA-MB-435
  GI50: > 100 µM
  TGI: > 100 µM
SF-539 CNS
  GI50: > 100 µM
  TGI: > 100 µM
UACC-257 melanoma
  GI50: > 100 µM
  TGI: > 100 µM

## O=C(O)c1c(=O)cccc2ssc12
UO-31 renal
  GI50: 1.66 µM
  TGI: 3.44 µM
RPMI-8226 leukemia
  GI50: 2.19 µM
  TGI: 5.66 µM
HS 578T breast
  GI50: 2.43 µM
  TGI: 5.54 µM
SW-620 colon
  GI50: 2.22 µM
  TGI: 5.59 µM
MCF7 breast
  GI50: 1.83 µM
  TGI: 3.9 µM
MDA-MB-435
  GI50: 1.93 µM
  TGI: 3.75 µM
SF-539 CNS
  GI50: 1.98 µM
  TGI: 3.84 µM
UACC-257 melanoma
  GI50: 2.02 µM
  TGI: 4.19 µM
